Reference: PubChem BioAssay AID1845200 (Molecular Pharmacology Branch, DTP, NCI, 2023)
pIC50: −log10 of the molar value.

Test system: ASPS-1 complex tumor spheroids, viability
Assay: Anticancer human tumor ASPS-1 cell line growth inhibition;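 further: spheroids exposed to agents for 7 days after 3 days of growth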;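 on viability, T/C: 100% = DMSO vehicle treated spheroids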
Conditions: for pIC50: curve of first compound; for viability, T/C: stronger effect = lower value
How it was run: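 Complex spheroids of malignant cells with endothelial cells and mesenchymal stem cells; agents alone or combined, from near clinical Cmax (or 10 microM if unknown) down in half-log steps, 0.25% DMSO final.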

[1] = second compound 30 pM, first compound 0.0316 µM
[2] = second compound 30 pM, first compound 0.1 µM
[3] = second compound 30 pM, first compound 0.316 µM
[4] = second compound 30 pM, first compound 1 µM
[5] = second compound 30 pM, first compound 3.16 µM
[6] = second compound 30 pM, first compound 10 µM
[7] = second compound 94.9 pM, first compound 0.0316 µM
[8] = second compound 94.9 pM, first compound 0.1 µM
[9] = second compound 94.9 pM, first compound 0.316 µM
[10] = second compound 94.9 pM, first compound 1 µM
[11] = second compound 94.9 pM, first compound 3.16 µM
[12] = second compound 94.9 pM, first compound 10 µM
[13] = second compound 0.0003 µM, first compound 0.0316 µM
[14] = second compound 0.0003 µM, first compound 0.1 µM
[15] = second compound 0.0003 µM, first compound 0.316 µM
[16] = second compound 0.0003 µM, first compound 1 µM
[17] = second compound 0.0003 µM, first compound 3.16 µM
[18] = second compound 0.0003 µM, first compound 10 µM
[19] = second compound 0.000949 µM, first compound 0.0316 µM
[20] = second compound 0.000949 µM, first compound 0.1 µM
[21] = second compound 0.000949 µM, first compound 0.316 µM
[22] = second compound 0.000949 µM, first compound 1 µM
[23] = second compound 0.000949 µM, first compound 3.16 µM
[24] = second compound 0.000949 µM, first compound 10 µM
[25] = second compound 0.003 µM, first compound 0.0316 µM
[26] = second compound 0.003 µM, first compound 0.1 µM
[27] = second compound 0.003 µM, first compound 0.316 µM
[28] = second compound 0.003 µM, first compound 1 µM
[29] = second compound 0.003 µM, first compound 3.16 µM
[30] = second compound 0.003 µM, first compound 10 µM

SMILES: CC1COCCN1c1cc(-c2ccnn2C)c2ccnc(-c3ccn[nH]3)c2n1 (stereo not given) + COc1cc2c(cc1O)CCNC21CSC2c3c(OC(C)=O)c(C)c4c(c3C(COC1=O)N1C(O)C3Cc5cc(C)c(OC)c(O)c5C(C21)N3C)OCO4
- pIC50 (second compound 30 pM): 6.81
- pIC50 (second compound 94.9 pM): 6.99
- pIC50 (second compound 0.0003 µM): > 7.50
- pIC50 (second compound 0.000949 µM): > 7.50
- pIC50 (second compound 0.003 µM): > 7.50
- viability, T/C [1]: 81.9%
- viability, T/C [2]: 53.9%
- viability, T/C [3]: 43.1%
- viability, T/C [4]: 42.9%
- viability, T/C [5]: 40.7%
- viability, T/C [6]: 38.9%
- viability, T/C [7]: 71.7%
- viability, T/C [8]: 50.1%
- viability, T/C [9]: 37.5%
- viability, T/C [10]: 38.5%
- viability, T/C [11]: 40.6%
- viability, T/C [12]: 41%
- viability, T/C [13]: 46.4%
- viability, T/C [14]: 37%
- viability, T/C [15]: 32%
- viability, T/C [16]: 30.1%
- viability, T/C [17]: 43%
- viability, T/C [18]: 38.3%
- viability, T/C [19]: 27.4%
- viability, T/C [20]: 25%
- viability, T/C [21]: 21.3%
- viability, T/C [22]: 25.9%
- viability, T/C [23]: 18.1%
- viability, T/C [24]: 13.9%
- viability, T/C [25]: 11.5%
- viability, T/C [26]: 10.2%
- viability, T/C [27]: 8.78%
- viability, T/C [28]: 5.28%
- viability, T/C [29]: 0.36%
- viability, T/C [30]: 0.46%

SMILES: COc1cc(C)[nH]c(=O)c1CN1CCc2c(Cl)cc(C(OC)C3COC3)c(Cl)c2C1=O (stereo not given) + COc1cc2c(cc1O)CCNC21CSC2c3c(OC(C)=O)c(C)c4c(c3C(COC1=O)N1C(O)C3Cc5cc(C)c(OC)c(O)c5C(C21)N3C)OCO4
- pIC50 (second compound 30 pM): < 5.00
- pIC50 (second compound 94.9 pM): < 5.00
- pIC50 (second compound 0.0003 µM): < 5.00
- pIC50 (second compound 0.000949 µM): < 5.00
- pIC50 (second compound 0.003 µM): > 7.50
- viability, T/C [1]: 107%
- viability, T/C [2]: 103%
- viability, T/C [3]: 100%
- viability, T/C [4]: 108%
- viability, T/C [5]: 102%
- viability, T/C [6]: 101%
- viability, T/C [7]: 98.7%
- viability, T/C [8]: 103%
- viability, T/C [9]: 103%
- viability, T/C [10]: 101%
- viability, T/C [11]: 100%
- viability, T/C [12]: 99.2%
- viability, T/C [13]: 98%
- viability, T/C [14]: 102%
- viability, T/C [15]: 98.7%
- viability, T/C [16]: 95%
- viability, T/C [17]: 96.1%
- viability, T/C [18]: 93.2%
- viability, T/C [19]: 77.7%
- viability, T/C [20]: 73.6%
- viability, T/C [21]: 72.1%
- viability, T/C [22]: 64.7%
- viability, T/C [23]: 68.2%
- viability, T/C [24]: 56%
- viability, T/C [25]: 19.5%
- viability, T/C [26]: 21.6%
- viability, T/C [27]: 23.1%
- viability, T/C [28]: 18.3%
- viability, T/C [29]: 19%
- viability, T/C [30]: 10.5%

SMILES: Cc1cc(C)c(CNC(=O)c2cc(-c3ccc(CN4CCOCC4)cc3)cc3c2cnn3C2CCCC2)c(=O)[nH]1 + COc1cc2c(cc1O)CCNC21CSC2c3c(OC(C)=O)c(C)c4c(c3C(COC1=O)N1C(O)C3Cc5cc(C)c(OC)c(O)c5C(C21)N3C)OCO4
- pIC50 (second compound 30 pM): < 5.00
- pIC50 (second compound 94.9 pM): < 5.00
- pIC50 (second compound 0.0003 µM): < 5.00
- pIC50 (second compound 0.000949 µM): 6.56
- pIC50 (second compound 0.003 µM): > 7.50
- viability, T/C [1]: 103%
- viability, T/C [2]: 97.4%
- viability, T/C [3]: 102%
- viability, T/C [4]: 104%
- viability, T/C [5]: 96.9%
- viability, T/C [6]: 84.4%
- viability, T/C [7]: 105%
- viability, T/C [8]: 97.8%
- viability, T/C [9]: 98.7%
- viability, T/C [10]: 99.5%
- viability, T/C [11]: 93.5%
- viability, T/C [12]: 76.8%
- viability, T/C [13]: 92%
- viability, T/C [14]: 96.2%
- viability, T/C [15]: 92.8%
- viability, T/C [16]: 86.2%
- viability, T/C [17]: 80.1%
- viability, T/C [18]: 63.1%
- viability, T/C [19]: 56.8%
- viability, T/C [20]: 75.2%
- viability, T/C [21]: 39.9%
- viability, T/C [22]: 31.6%
- viability, T/C [23]: 24.5%
- viability, T/C [24]: 9.44%
- viability, T/C [25]: 13.7%
- viability, T/C [26]: 5.99%
- viability, T/C [27]: 2.02%
- viability, T/C [28]: 0.27%
- viability, T/C [29]: 0.25%
- viability, T/C [30]: 0.32%

SMILES: Cc1sc2c(c1C)C(c1ccc(Cl)cc1)=NC(CC(=O)Nc1ccc(O)cc1)c1nnc(C)n1-2 (stereo not given) + COc1cc2c(cc1O)CCNC21CSC2c3c(OC(C)=O)c(C)c4c(c3C(COC1=O)N1C(O)C3Cc5cc(C)c(OC)c(O)c5C(C21)N3C)OCO4
- pIC50 (second compound 30 pM): < 5.52
- pIC50 (second compound 94.9 pM): < 5.52
- pIC50 (second compound 0.0003 µM): < 5.52
- pIC50 (second compound 0.000949 µM): 6.11
- pIC50 (second compound 0.003 µM): > 8.02
- viability, T/C (second compound 30 pM, first compound 0.00949 µM): 109%
- viability, T/C (second compound 30 pM, first compound 0.03 µM): 112%
- viability, T/C (second compound 30 pM, first compound 0.0949 µM): 113%
- viability, T/C (second compound 30 pM, first compound 0.3 µM): 103%
- viability, T/C (second compound 30 pM, first compound 0.949 µM): 94%
- viability, T/C (second compound 30 pM, first compound 3 µM): 83%
- viability, T/C (second compound 94.9 pM, first compound 0.00949 µM): 106%
- viability, T/C (second compound 94.9 pM, first compound 0.03 µM): 107%
- viability, T/C (second compound 94.9 pM, first compound 0.0949 µM): 109%
- viability, T/C (second compound 94.9 pM, first compound 0.3 µM): 103%
- viability, T/C (second compound 94.9 pM, first compound 0.949 µM): 93.4%
- viability, T/C (second compound 94.9 pM, first compound 3 µM): 70.2%
- viability, T/C (second compound 0.0003 µM, first compound 0.00949 µM): 102%
- viability, T/C (second compound 0.0003 µM, first compound 0.03 µM): 110%
- viability, T/C (second compound 0.0003 µM, first compound 0.0949 µM): 103%
- viability, T/C (second compound 0.0003 µM, first compound 0.3 µM): 97.1%
- viability, T/C (second compound 0.0003 µM, first compound 0.949 µM): 85.2%
- viability, T/C (second compound 0.0003 µM, first compound 3 µM): 72.4%
- viability, T/C (second compound 0.000949 µM, first compound 0.00949 µM): 81.6%
- viability, T/C (second compound 0.000949 µM, first compound 0.03 µM): 94.7%
- viability, T/C (second compound 0.000949 µM, first compound 0.0949 µM): 88.7%
- viability, T/C (second compound 0.000949 µM, first compound 0.3 µM): 76.9%
- viability, T/C (second compound 0.000949 µM, first compound 0.949 µM): 44.3%
- viability, T/C (second compound 0.000949 µM, first compound 3 µM): 26.3%
- viability, T/C (second compound 0.003 µM, first compound 0.00949 µM): 24.1%
- viability, T/C (second compound 0.003 µM, first compound 0.03 µM): 24.6%
- viability, T/C (second compound 0.003 µM, first compound 0.0949 µM): 29.2%
- viability, T/C (second compound 0.003 µM, first compound 0.3 µM): 20.9%
- viability, T/C (second compound 0.003 µM, first compound 0.949 µM): 9.4%
- viability, T/C (second compound 0.003 µM, first compound 3 µM): 1.27%

SMILES: [2H]c1nc(C)nc([2H])c1-c1cc(NC[C@@H](C)c2cccc3c(C(=O)NC)ccnc23)ncn1 + COc1cc2c(cc1O)CCNC21CSC2c3c(OC(C)=O)c(C)c4c(c3C(COC1=O)N1C(O)C3Cc5cc(C)c(OC)c(O)c5C(C21)N3C)OCO4
- pIC50 (second compound 30 pM): < 5.00
- pIC50 (second compound 94.9 pM): < 5.00
- pIC50 (second compound 0.0003 µM): < 5.00
- pIC50 (second compound 0.000949 µM): 5.18
- pIC50 (second compound 0.003 µM): > 7.50
- viability, T/C [1]: 106%
- viability, T/C [2]: 105%
- viability, T/C [3]: 102%
- viability, T/C [4]: 107%
- viability, T/C [5]: 102%
- viability, T/C [6]: 98.7%
- viability, T/C [7]: 106%
- viability, T/C [8]: 102%
- viability, T/C [9]: 99%
- viability, T/C [10]: 98.2%
- viability, T/C [11]: 97.6%
- viability, T/C [12]: 99.5%
- viability, T/C [13]: 97.6%
- viability, T/C [14]: 94.8%
- viability, T/C [15]: 93%
- viability, T/C [16]: 88.5%
- viability, T/C [17]: 98%
- viability, T/C [18]: 91.3%
- viability, T/C [19]: 78.6%
- viability, T/C [20]: 76.5%
- viability, T/C [21]: 71.1%
- viability, T/C [22]: 66.2%
- viability, T/C [23]: 56.2%
- viability, T/C [24]: 46.2%
- viability, T/C [25]: 18.6%
- viability, T/C [26]: 22.6%
- viability, T/C [27]: 18%
- viability, T/C [28]: 18.1%
- viability, T/C [29]: 11%
- viability, T/C [30]: 3.59%
